The values below come from patent US20100179151A1, “TRANSDERMAL APPLICATION OF TRIAZINES FOR CONTROLLING INFECTIONS WITH COCCIDIA” (BAYER ANIMAL HEALTH GMBH, priority 2006, published 2010).

Holding throughout (format): in vivo
Series [1] is described as follows: Serum concentrations of toltrazuril and ponazuril after pour-on application in calves. As to the method:
(§1) A. Determination of the Serum Concentrations of Toltrazuril and Ponazuril after Pour-On Application in Calves and Rabbits On day 0, the formulation of Example 10 was applied externally at a dose of 20 mg per kg (body weight) to in each case three calves and rabbits. At the points in time specified in the tables, the serum concentrations of toltrazuril and its metabolite ponazuril (toltrazuril sulphone) were determined.

Series [2] is described as follows: Serum concentrations of toltrazuril and ponazuril after pour-on application in rabbits. The following applies: for Toltrazuril in mg/l on day after the treatment (serum) / Ponazuril in mg/l on day after the treatment (serum, metabolite of toltrazuril): individual animals 1-3. As to the method:
as §1

Another series relates to Isospora suis. The series is described as follows: Activity of toltrazuril pour-on against artificially provoked infections in suckling pigs with Isospora suis. The following applies: pour-on treatment. As to the method: B. Activity of Toltrazuril Pour-On Against Artificially Provoked Infections in Suckling Pigs with Isospora suis: 3 groups with 4 to 11 animals were formed. Group A was infected with oocysts and treated with the toltrazuril pour-on formulation of Example 10. Group B was not infected, but treated in the same manner, the dosage rate of group A and B being in each case 20 mg/kg body weight. Group C was infected with oocysts, but not treated with toltrazuril. The success of the treatment was determined by monitoring the live weight of the animals. To this end, the animals were weighed on different days, and the weight gain of the individual animals was determined The results are shown in Table 3.

The nature of series [3]: Percutaneous absorption in pigs: detection of active substance and main metabolite in serum and body tissues. The settings on record: pour-on, serum, musculature, skin, liver, kidney. The text has this: Astonishingly, this is even the case in animal species with little hair. Animals with little hair, such as pigs, ensure the protective function of the outer integument via a thicker epidermis. It is entirely surprising that the active substance is absorbed across this thicker skin and in particular also across the stratum corneum of the skin, which is particularly thick in pigs. Moreover, the active substance can also not be taken up via the large number of hair follicles, as is in the case in other animal species with a thicker coat of hair.

Several values for one entry are separate records, joined by “and”; a condition that tells them apart may be missing. Identical values can stand only once.

For `Cc1cc(-n2c(=O)[nH]c(=O)n(C)c2=O)ccc1Oc1ccc(SC(F)(F)F)cc1` [Toltrazuril, toltrazuril], the “Percutaneous absorption and metabolism after pour-on application” value in series [1] was “percutaneously absorbed, and metabolised”; in series [2] it was “percutaneously absorbed, and metabolised”. Besides, the “Toltrazuril in mg/l on day after the treatment (serum)” value in series [1] (day 0, formulation of Example 10 applied externally (pour-on) 20 mg/kg, individual animals 1-3, LoQ 25 μg/l) was “<LoQ”; in series [1] (day 1, formulation of Example 10 pour-on 20 mg/kg, individual animals 1-3) it was 2180 mg/L and 650 mg/L and 2281 mg/L; in series [1] (day 7, formulation of Example 10 pour-on 20 mg/kg, individual animals 1-3) it was 9246 mg/L and 2042 mg/L and 2275 mg/L; in series [1] (day 13, formulation of Example 10 pour-on 20 mg/kg, individual animals 1-3), 2194 mg/L and 1806 mg/L and 702 mg/L; in series [1] (day 21, formulation of Example 10 pour-on 20 mg/kg, individual animals 1-3) it was 462 mg/L and 371 mg/L and 430 mg/L; in series [2] (day 1, formulation of Example 10 pour-on 20 mg/kg), 9.06 mg/L and 8.67 mg/L and 9.67 mg/L. Also, the “Toltrazuril in mg/l on day after the treatment (serum)” value in series [2] (day 2, formulation of Example 10 pour-on 20 mg/kg) is 10.39 mg/L and 6.03 mg/L and 8.03 mg/L; in series [2] (day 3, formulation of Example 10 pour-on 20 mg/kg), 6.66 mg/L and 5.07 mg/L and 6.70 mg/L. For the same compound, in the series on Isospora suis, the “Control of massive infection with Isospora suis” value is given as “successfully controlled”. In the series on Isospora suis, the “Elimination of oocysts (parasitological efficacy)” value is recorded as “reduced elimination of oocysts”. In addition, the “Incidence of diarrhoea (clinical efficacy)” value in the series on Isospora suis is “reduced incidence of diarrhoea”. In the series on Isospora suis, the “Weight development (clinical efficacy)” value is given as “better weight development”. The “Percutaneous absorption: active substance and main metabolite detected in body tissues” value in series [3] is reported as “percutaneous absorption was also demonstrated”.
As for `Cc1cc(-n2c(=O)[nH]c(=O)n(C)c2=O)ccc1Oc1ccc(S(=O)(=O)C(F)(F)F)cc1` [Ponazuril, ponazuril], the “Ponazuril in mg/l on day after the treatment (serum, metabolite of toltrazuril)” value is “<LoQ” in series [1] (day 0, toltrazuril formulation of Example 10 pour-on 20 mg/kg, individual animals 1-3, LoQ 25 μg/l); 156 mg/L and 44 mg/L and 146 mg/L in series [1] (day 1, toltrazuril formulation of Example 10 pour-on 20 mg/kg, individual animals 1-3); 9715 mg/L and 2735 mg/L and 2615 mg/L in series [1] (day 7, toltrazuril formulation of Example 10 pour-on 20 mg/kg, individual animals 1-3); 4506 mg/L and 3440 mg/L and 1905 mg/L in series [1] (day 13, toltrazuril formulation of Example 10 pour-on 20 mg/kg, individual animals 1-3); 1394 mg/L and 733 mg/L and 1172 mg/L in series [1] (day 21, toltrazuril formulation of Example 10 pour-on 20 mg/kg, individual animals 1-3); 1.79 mg/l and 1.38 mg/l (2×) in series [2] (day 1, toltrazuril formulation of Example 10 pour-on 20 mg/kg). Also, the “Ponazuril in mg/l on day after the treatment (serum, metabolite of toltrazuril)” value is 4.72 mg/L and 2.63 mg/L and 2.83 mg/L in series [2] (day 2, toltrazuril formulation of Example 10 pour-on 20 mg/kg); 5.03 mg/L and 4.07 mg/L and 3.42 mg/L in series [2] (day 3, toltrazuril formulation of Example 10 pour-on 20 mg/kg).
